Measured values reported in US8686002B2, “Heterocyclic compounds and their use as binding partners for 5-HT5 receptors” (AbbVie Deutschland GmbH & Co. KG, priority 2005, dated 2014).
Where a name gives a salt, the structure may show the parent alone.

Molecular target: 5-HT5A (Homo sapiens, UniProt P47898)
Experiment: Affinity of selected compounds for 5-HT5A (Ki)
Assay type: binding
Experimental: In both assays, different concentrations of the test substances are used and the Ki and IC50 values are determined.

Chain of 5-HT5A (P47898 whole entry): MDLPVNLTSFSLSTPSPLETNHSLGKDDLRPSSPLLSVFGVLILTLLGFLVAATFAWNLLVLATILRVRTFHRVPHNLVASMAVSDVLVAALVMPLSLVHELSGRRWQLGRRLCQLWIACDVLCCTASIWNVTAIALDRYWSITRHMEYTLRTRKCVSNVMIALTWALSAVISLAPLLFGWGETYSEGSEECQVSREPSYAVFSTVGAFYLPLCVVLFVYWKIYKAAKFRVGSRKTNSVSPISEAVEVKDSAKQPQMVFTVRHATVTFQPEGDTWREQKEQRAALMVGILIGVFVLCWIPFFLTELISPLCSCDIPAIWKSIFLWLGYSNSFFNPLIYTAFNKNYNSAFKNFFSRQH

SMILES | Ki
COc1ccccc1Cc1cc2ccc(N(C)C)cc2nc1N [Example 28, 3-(2-Methoxybenzyl)-N^7,N^7-dimethylquinolin-2,7-diamine] | < 300 nM
COc1cccc(F)c1Cc1cc2ccccc2nc1N [Example 29, 3-(2-Fluoro-6-methoxybenzyl)quinolin-2-amine] | < 300 nM
COc1cccc(Cl)c1Cc1cc2ccccc2nc1N [Example 30, 3-(2-Chloro-6-methoxybenzyl)quinolin-2-amine] | < 300 nM
CCOc1ccc2nc(N)c(Cc3ccccc3OC)cc2c1 [Example 31, 6-Ethoxy-3-(2-methoxybenzyl)quinolin-2-amine] | < 300 nM
CCOc1ccc2nc(N)c(Cc3c(OC)cccc3OC)cc2c1 [Example 32, 6-Ethoxy-3-(2,6-dimethoxybenzyl)quinolin-2-amine] | < 300 nM
COc1ccccc1Cc1cc2cnccc2nc1N [Example 33, 3-(2-Methoxybenzyl)-1,6-naphthyridin-2-amine] | < 300 nM
COc1ccccc1Cc1cc2cccnc2nc1N [Example 34, 3-(2-Methoxybenzyl)-1,8-naphthyridin-2-amine] | < 10000 nM
COc1cccc(F)c1Cc1cc2cnccc2nc1N [Example 35, 3-(2-Fluoro-6-methoxybenzyl)-1,6-naphthyridin-2-amine] | < 300 nM
COc1ccccc1Cc1cc2ccncc2nc1N [Example 36, 3-(2-Methoxybenzyl)-1,7-naphthyridin-2-amine] | < 300 nM
COc1cccc(OC)c1Cc1cc2ccncc2nc1N [Example 37, 3-(2,6-Dimethoxybenzyl)-1,7-naphthyridin-2-amine] | < 300 nM
COc1ccccc1Cc1cc2ncccc2nc1N [Example 38, 3-(2-Methoxybenzyl)-1,5-naphthyridin-2-amine] | < 300 nM
COc1ccccc1Cc1cc2ccc(F)cc2nc1N [Example 39, 7-Fluoro-3-(2-methoxybenzyl)quinolin-2-amine] | < 300 nM
COc1cccc(Cl)c1Cc1cc2cc3c(cc2nc1N)OCO3 [Example 40, 7-(2-Chloro-6-methoxybenzyl)[1.3]dioxolo[4,5-g]quinolin-76-amine] | < 300 nM
COc1ccccc1Cc1cc2cc(F)c(F)cc2nc1N [Example 41, 6,7-Difluoro-3-(2-methoxybenzyl)quinolin-2-amine] | < 300 nM
COc1cccc(F)c1Cc1cc2ccc(F)cc2nc1N [Example 42, 7-Fluoro-3-(2-fluoro-6-methoxybenzyl)quinolin-2-amine] | < 300 nM
COCCOc1ccc2nc(N)c(Cc3ccccc3OC)cc2c1 [Example 43, 3-(2-Methoxybenzyl)-6-(2-methoxyethoxy)quinolin-2-amine] | < 300 nM
COc1ccccc1Cc1cc2cc(N3CCOCC3)ccc2nc1N [Example 44, 3-(2-Methoxybenzyl)-6-morpholin-4-ylquinolin-2-amine] | < 300 nM
COc1cccc(F)c1Cc1cc2cc(N3CCOCC3)ccc2nc1N [Example 45, 3-(2-Methoxy-6-fluorobenzyl)-6-morpholin-4-ylquinolin-2-amine] | < 300 nM
COc1cccc(OC)c1Cc1cc2ncccc2nc1N [Example 46, 3-(2,6-Dimethoxybenzyl)-1,5-naphthyridin-2-amine] | < 300 nM
COc1cccc(F)c1Cc1cc2ncccc2nc1N [Example 47, 3-(2-Fluoro-6-methoxybenzyl)-1,5-naphthyridin-2-amine] | < 300 nM
COc1ccccc1Cc1cc2cc(N3CCN(C)CC3)ccc2nc1N [Example 48, 3-(2-Methoxybenzyl)-6-(4-methylpiperazin-1-yl)quinolin-2-amine bisfumarate] | < 300 nM
COc1cccc(F)c1Cc1cc2cc(N3CCN(C)CC3)ccc2nc1N [Example 49, 3-(2-Fluoro-6-methoxybenzyl)-6-(4-methylpiperazin-1-yl)quinolin-2-aminomonofumarate] | < 300 nM
COc1ccccc1Cc1cc2cc(N3CCOCC3)c(F)cc2nc1N [Example 50, 7-Fluoro-3-(2-methoxybenzyl)-6-morpholin-4-ylquinolin-2-amine] | < 300 nM
COc1ccccc1Cc1cc2cccc(OC)c2nc1N [Example 51, 8-Methoxy-3-(2-methoxybenzyl)quinolin-2-amine] | < 300 nM
COc1cccc(OC)c1Cc1cc2cccc(OC)c2nc1N [Example 52, 3-(2,6-Dimethoxybenzyl)-8-methoxyquinolin-2-amine hydrochloride] | < 300 nM
Nc1nc2ccccc2cc1Cc1ccccc1OC(F)(F)F [Example 53, 3-[2-(Trifluoromethoxy)benzyl]quinolin-2-amine] | < 300 nM
CC(C)Oc1ccccc1Cc1cc2ccccc2nc1N [Example 54, 3-(2-Isopropoxybenzyl)quinolin-2-amine hydrochloride] | < 300 nM
CCOc1ccccc1Cc1cc2ccccc2nc1N [Example 55, 3-(2-Ethoxybenzyl)quinolin-2-amine hydrochloride] | < 300 nM

SMILES | Ki
CC(C)Oc1cccc(F)c1Cc1cc2ccccc2nc1N [Example 56, 3-(2-Fluoro-6-isopropoxybenzyl)quinolin-2-amine hydrochloride] | < 300 nM
COc1cccc(Cl)c1Cc1cc2ncccc2nc1N [Example 58, 3-(2-Chloro-6-methoxybenzyl)-1,5-naphthyridin-2-amine] | < 300 nM
CCOc1cccc(F)c1Cc1cc2ccccc2nc1N [Example 59, 3-(2-Ethoxy-6-fluorobenzyl)quinolin-2-amine hydrochloride] | < 300 nM
CN(C)CCOc1cccc(F)c1Cc1cc2ccccc2nc1N [Example 60, 3-{2-[2-(Dimethylamino)ethoxy]-6-fluorobenzyl}quinolin-2-amine bishydrochloride] | < 300 nM
Nc1nc2ccccc2cc1Cc1ccccc1OC(F)F [Example 61, 3-[2-(difluoromethoxy)benzyl]quinolin-2-amine] | < 300 nM
CCOc1ccccc1Cc1cc2cc(N3CCOCC3)ccc2nc1N [Example 62, 3-(2-Ethoxygenzyl)-6-morpholin-4-ylquinolin-2-amine monofumarate] | < 300 nM
COc1cccc(OC)c1CN1Cc2ccccc2N=C1N [Example 63, 3-(2,6-Dimethoxybenzyl)-3,4-dihydroquinazolin-2-amine acetate] | < 300 nM
COc1ccccc1CN1Cc2ccccc2N=C1N [Example 64, 3-(2-Methoxybenzyl)-3,4-dihydroquinazolin-2-amine hydrochloride] | < 300 nM
COc1ccccc1CN1Cc2ccc(Cl)cc2N=C1N [Example 65, 7-Chloro-3-(2-methoxybenzyl)-3,4-dihydroquinazolin-2-amine] | < 300 nM
COc1ccccc1CN1Cc2ccc(C(F)(F)F)cc2N=C1N [Example 66, 3-(2-Methoxybenzyl)-7-(trifluoromethyl)-3,4-dihydroquinazolin-2-amine hydrochloride] | < 300 nM
COc1cc(Cl)ccc1CN1Cc2ccccc2N=C1N [Example 67, 3-(4-Chloro-2-methoxybenzyl)-3,4-dihydroquinazolin-2-amine hydrochloride] | < 300 nM
NC1=Nc2ccccc2CN1Cc1cccc2c1OCC2 [Example 68, 3-(2,3-Dihydro-1-benzofuran-7-ylmethyl)-3,4-dihydroquinazolin-2-amine hydrochloride] | < 300 nM
NC1=Nc2ccccc2CN1Cc1ccccc1OC(F)(F)F [Example 69, 3-[2-(Trifluoromethoxy)benzyl]-3,4-dihydroquinazolin-2-amine] | < 300 nM
COc1ccc(CN2Cc3ccccc3N=C2N)c(OC)c1 [Example 70, 3-(2,4-Dimethoxybenzyl)-3,4-dihydroquinazolin-2-amine] | < 10000 nM
COc1cccc(CN2Cc3ccccc3N=C2N)c1OC [Example 71, 3-(2,3-Dimethoxybenzyl)-3,4-dihydroquinazolin-2-amine hydrochloride] | < 10000 nM
NC1=Nc2ccccc2CN1Cc1ccccc1O [Example 72, 2-[(2-Aminoquinazolin-3(4H)-yl)methyl]phenol] | < 10000 nM
COc1ccccc1CN1Cc2ccccc2N=C1NO [Example 73, 2-(Hydroxyamino)-3-(2-methoxybenzyl)-3,4-dihydroquinazoline] | < 10000 nM
COc1ccccc1CN1Cc2ccccc2N=C1NC1Cc2ccccc2C1 [Example 74, N-(2,3-Dihydro-1H-inden-2-yl)-3-(2-methoxybenzyl)-3,4-dihydroquinazolin-2-amine acetate] | < 300 nM
COc1ccccc1CN1Cc2ccccc2N=C1NCc1cccnc1 [Example 75, 3-(2-Methoxybenzyl)-2-[(pyridin-3-ylmethyl)amino]-3,4-dihydroquinazoline acetate] | < 10000 nM
CCCCNC1=Nc2ccccc2CN1Cc1ccccc1OC [Example 76, 2-(Butylamino)-3-(2-methoxybenzyl)-3,4-dihydroquinazoline hydrochloride] | < 10000 nM
COc1ccccc1CN1Cc2ccccc2N=C1NCC(C)C [Example 77, 2-(Isobutylamino)-3-(2-methoxybenzyl)-3,4-dihydroquinazoline acetate] | < 10000 nM
COc1ccccc1CN1Cc2ccccc2N=C1N1CCNCC1 [Example 78, 3-(2-Methoxybenzyl)-2-piperazin-1-yl-3,4-dihydroquinazoline hydrochloride] | < 10000 nM
COc1ccccc1CN1Cc2ccccc2N=C1N1CCN(C)CC1 [Example 79, 3-(2-Methoxybenzyl)-2-(4-methylpiperazin-1-yl)-3,4-dihydroquinazoline fumarate] | < 10000 nM
COc1ccccc1CN1Cc2ccccc2N=C1N1CCN(Cc2ccccc2)CC1 [Example 80, 2-(4-Benzylpiperazin-1-yl)-3-(2-methoxybenzyl)-3,4-dihydroquinazoline fumarate] | < 10000 nM
COc1cccc(OC)c1CN1Cc2ccc(Br)cc2N=C1N [Example 81, 7-Bromo-3-(2,6-dimethoxybenzyl)-3,4-dihydroquinazolin-2-amine] | < 300 nM
COc1cccc(OC)c1CN1Cc2ccc(-c3ccccc3)cc2N=C1N [Example 82, 3-(2,6-Dimethoxybenzyl)-7-phenyl-3,4-dihyroquinazoli-2-aminium acetate] | < 300 nM
COc1ccc(-c2ccc3c(c2)N=C(N)N(Cc2c(OC)cccc2OC)C3)cc1 [Example 83, 3-(2,6-Dimethoxybenzyl)-7-(4-methoxyphenyl)-3,4-dihydroquinazolin-2-aminium acetate] | < 10000 nM
